The record followed here is publication PMC5133935, “Hydrostatin-TL1, an Anti-Inflammatory Active Peptide from the Venom Gland of Hydrophis cyanocinctus in the South China Sea” (International Journal of Molecular Sciences, 2016).

Entries after “also recorded” stand apart in the source; their conditions may differ. No end group written: not given here.

The test system of series [1] is TNF-α/TNFR1. Description: SPR analysis, TNF-α binding to chip-immobilized TNFR1. Details: species or system human. The following applies: H-TL1 0.5 and 1 μM; hrTNF-α 100 nM; sTNFR1 on CM5 chip, BIAcore T200; 360 s association, 200 s dissociation. How it is done: The T7Select1-2b display vector, T7 select primers, blocking reagent, and elution buffer were purchased from Novagen (Merck, Kenilworth, NJ, USA). […] DSS (36–50 kDa) was bought from MP Biomedicals (Solon, OH, USA). MTT, actinomycin D, and LPS were purchased from Sigma-Aldrich (St. Louis, MO, USA).
sTNFR1 (100 μg/mL) was covalently immobilized onto a CM5 sensor chip by the BIAcore T200 system (Biacore, GE Healthcare) following manufacturer’s instructions. To determine whether H-TL1 inhibits the binding of TNF-α to TNFR1, hrTNF-α was diluted in running buffer at 100 nM with or without different concentrations of H-TL1 (0.1, 0.5, and 1 μM) and subsequently passed over the sTNFR1-immobilized chip for 360 s, followed by dissociation for 200 s. The response unit indicates binding ability.
For orientation: Surface plasmon resonance follows binding to a sensor surface in real time, without labels.

Series [2] relates to L929 cells. The series is classed as cell-based, mouse. The following applies: H-TL1 100 μM; data not shown. How it is done:
(§1) We used the L929 cell line, which is commonly chosen by researchers, to evaluate the effects of H-TL1 on TNF-α-mediated cytotoxicity. The cells were treated with TNF-α and 0.2 μg/mL actinomycin D in the presence of graded concentrations of H-TL1. Cell viability was evaluated using MTT assay. […] Furthermore, H-TL1 was not cytotoxic against L929 cells at 100 μM (data not shown), which far exceeds the concentration of H-TL1 used in the in vitro assays.
The H. cyanocinctus specimens were captured during September 2005 in the South China Sea near Guangdong Province, People’s Republic of China. After collection, the snakes were killed, and the venom glands were isolated and immediately frozen in liquid nitrogen until use. HEK-293 human embryonic kidney and L929 mouse fibroblast cell lines were obtained from ATCC and cultured in Dulbecco’s modified Eagle’s medium (DMEM, Sigma-Aldrich, St. Louis, MO, USA) containing 10% (v/v) heat-inactivated fetal bovine serum (FBS, Gibco, BRL, Grand Island, NY, USA) at 37 °C in an atmosphere of 5% CO2. The BLT5403 E. coli strain (used as the phage host strain) was from Novagen (Merck) and was cultured at 37 °C for propagation. The specific pathogen-free (SPF) male BALB/c and C57BL/6 mice (both 6–8 weeks old), weighing 20 ± 2 g were purchased from Shanghai SLAC Laboratory Animal Co., Ltd. (Shanghai, China). […]

The test system of series [3] is TNF-α expression in lung tissue of LPS-treated mice. Description: Immunohistochemistry, TNF-α in lung tissue. The series is classed as in vivo, mouse. The following applies: IHC 400×, n = 8, *** p < 0.001 vs. LPS group. How it is done:
(§2) The LPS-induced acute shock model was established in male C57BL/6 mice (6–8 weeks old) that were randomly allocated to five groups. LPS was administered (15 mg/kg body weight) to induce acute shock. The LPS- or normal saline-treated mice were injected with 100 μL of normal saline with or without LPS intraperitoneally, while the H-TL1 and LPS-treated mice were each administered H-TL1 at three doses of 20, 40, and 80 μg/kg 1, 3, and 5 h after the LPS injection (Figure 5A). The mice were observed every 4 h to evaluate mortality.
An additional set of paraffin sections was used for immunohistochemical analysis of TNF-α expression. Sections (5-μm thick) were mounted on slides, cleaned, hydrated, blocked with endogenous peroxidase (Dako, S2001), washed with PBS, and then treated with citrate buffer ([…], pH 6.0) for target antigen retrieval. The sections were treated with a buffered blocking solution (3% BSA in PBS for 15 min), incubated for 1 h at room temperature with a primary polyclonal antibody specific to mouse TNF-α, washed with PBS, and incubated with a secondary HRP-labeled antibody (Abcam) (1:500 in PBS, v/v) at room temperature for 1 h. Then, the sections were washed again with Tris-HCl 0.05 M, pH 7.6, and subsequently incubated with 3,3′-diaminobenzidine (DAB) solution in the dark at room temperature for 10 min. […]

The subject of series [4] is L929 cells. The experiment in a line: MTT assay, protection from TNF-α-mediated cytotoxicity. The series is classed as cell-based, mouse. The following applies: H-TL1 1 to 1000 nM; hrTNF-α 20 ng/mL + 0.2 μg/mL actinomycin D; 18–20 h, 37 °C; MTT 490 nm; n = 5. The procedure:
as §1
The H. cyanocinctus specimens were captured during September 2005 in the South China Sea near Guangdong Province, People’s Republic of China. After collection, the snakes were killed, and the venom glands were isolated and immediately frozen in liquid nitrogen until use. HEK-293 human embryonic kidney and L929 mouse fibroblast cell lines were obtained from ATCC and cultured in Dulbecco’s modified Eagle’s medium (DMEM, Sigma-Aldrich, St. Louis, MO, USA) containing 10% (v/v) heat-inactivated fetal bovine serum (FBS, Gibco, BRL, Grand Island, NY, USA) at 37 °C in an atmosphere of 5% CO2. […]
For MTT cell viability assay, L929 cells were seeded onto a 96-well plate and cultured for 12 h. […] Following incubation at 37 °C for 18–20 h, MTT solution was added, followed by incubation at 37 °C for 4 h, and then the absorbance was determined at 490 nm. […]
A general note: Formazan colour is commonly taken as a measure of viable cells.

Series [5] concerns LPS-induced acute shock in C57BL/6 mice. The experiment in a line: LPS-induced acute shock, survival. The series is classed as in vivo, mouse. The following applies: for survival rate: within 96 h, LPS + vehicle all died within 30 h, n = 8.
Description: The H. cyanocinctus specimens were captured during September 2005 in the South China Sea near Guangdong Province, People’s Republic of China. After collection, the snakes were killed, and the venom glands were isolated and immediately frozen in liquid nitrogen until use. HEK-293 human embryonic kidney and L929 mouse fibroblast cell lines were obtained from ATCC and cultured in Dulbecco’s modified Eagle’s medium (DMEM, Sigma-Aldrich, St. Louis, MO, USA) containing 10% (v/v) heat-inactivated fetal bovine serum (FBS, Gibco, BRL, Grand Island, NY, USA) at 37 °C in an atmosphere of 5% CO2. The BLT5403 E. coli strain (used as the phage host strain) was from Novagen (Merck) and was cultured at 37 °C for propagation. The specific pathogen-free (SPF) male BALB/c and C57BL/6 mice (both 6–8 weeks old), weighing 20 ± 2 g were purchased from Shanghai SLAC Laboratory Animal Co., Ltd. (Shanghai, China). The mice were housed in animal facilities with 50% humidity under a 12-h light-dark cycle, fed a standard pellet diet, and provided with tap water ad libitum. The animal experimental protocols in this research, including venom gland isolation and the mouse study, were approved by the Animal Care and Use Committee of the Second Military Medical University.
as §2

ATSKPSLKC-OH [H-TL1]: the “attenuation of SPR response of TNF-α to TNFR1” value in series [1] was “inhibits the association of TNF-α with sensor chip-immobilized TNFR1; also recorded: the elicited response was markedly attenuated”. For the same substance, the “cytotoxicity against L929 cells” value in series [2] was “not cytotoxic”. Further, the “TNF-α expression in lung tissue” value in series [3] is on record as “attenuated this effect”. Moreover, the “inhibition of TNF-α-induced L929 cell death” value in series [4] was “inhibited TNF-α-induced L929 cell death in a concentration-dependent manner; also recorded: improved survival in TNF-α-treated L929 cells”. Moreover, the survival rate in series [5] (H-TL1 40 μg/kg at 1, 3, and 5 h after LPS 15 mg/kg i.p., * p < 0.05) is on record as 37.5%; in series [5] (H-TL1 80 μg/kg at 1, 3, and 5 h after LPS 15 mg/kg i.p., *** p < 0.001), 62.5%. For the same substance, the “protection from LPS-induced acute shock, dose dependence” value in series [5] (H-TL1 20, 40, and 80 μg/kg, LPS 15 mg/kg i.p.) is recorded as “protected the mice from LPS-induced acute shock in a dose-dependent manner”.
